Data on five compounds can be found in patent US9630977B2, “Cephalosporin derivatives and pharmaceutical compositions thereof” (Legochem Biosciences, Inc., priority 2011, dated 2017).

Values after ≈ are worked out from the molar mass of the structure shown. Where two headings read alike, the source gives them in different places.

What all share (assay): In vitro antibacterial activity test (broth microdilution)
Assay type in all cases: cell-based
A general note: In broth dilution the organism is exposed to a series of concentrations in liquid medium.

One test relates to K. pneumoniae β14. The conditions noted are these: Klebsiella pneumoniae. The protocol:
(§1) To evaluate antibacterial activity of each of the compounds of Examples 1 to 68, in vitro antibacterial activity test was performed.
(§2) The in vitro antibacterial activity was evaluated by measuring MIC90 (ug/mL) of each of the compounds of Examples 1 to 68, which is defined as the lowest concentration of an antibiotic that will inhibit the visible growth of 90% of microorganisms after incubation as compared with a control group to which the antibiotic is not treated. MIC90 values were measured by the broth microdilution method developed by the Clinical and Laboratory Standards Institute (CLSI) (see CLSI M7-A5, Methods for Dilution Antimicrobial Susceptibility Test for Bacteria that Grow Aerobically-Fifth Edition (2000): CLSI, Villanova, Pa.).
(§3) In vitro antibacterial activity was measured with respect to the following 19 clinical isolates: M. catarrhalis; P. aeruginosa (5 strains); K. pneumoniae (6 strains); A. baumannii (3 strains); E. coli (2 strains); A. calcoaceticus; and E. cloacae.
(§4) Test compounds each (the cephalosporin derivative compounds prepared in Examples 1 to 68) were dissolved in DMSO at the concentration of 10,240 ug/mL, were diluted by two fold with DMSO, and then were diluted by twenty fold with sterilized distilled water. The final concentration in the antibacterial activity test was in the range of […] to 128 ug/mL, and the final concentration of DMSO used as an adjuvant was 2.5% (V/V).

The test system of a further test is E. coli AG100. The conditions noted are these: Escherichia coli. The protocol: as §1, §2, §3, §4
For test [1], the system named is A. calcoaceticus ATCC15473. The conditions noted are these: Acinetobacter calcoaceticus. As for the experimental part:
as §1, §2, §3, §4

The next test relates to P. aeruginosa 1912E. The conditions noted are these: Pseudomonas aeruginosa, 1912E. As for the experimental part:
as §1, §2, §3, §4

Another test relates to A. baumannii 49. As for the experimental part: as §1, §2, §3, §4
For the next test, the system named is E. coli β4. The conditions noted are these: Escherichia coli. The protocol:
as §1, §2, §3, §4

The next test has as its system A. baumannii 52. The conditions noted are these: Acinetobacter baumannii. The protocol: as §1, §2, §3, §4
The test system of another test is P. aeruginosa 37. The conditions noted are these: Pseudomonas aeruginosa, 37, P. aeruginosa 37. The protocol: as §1, §2, §3, §4
The subject of the next test is P. aeruginosa 6065Y. The conditions noted are these: Pseudomonas aeruginosa. The protocol:
as §1, §2, §3, §4

The next test deals with K. pneumoniae 2011E. The conditions noted are these: Klebsiella pneumoniae, 2011E. As for the experimental part:
as §1, §2, §3, §4

In the next test the test system is E. cloacae β19. The conditions noted are these: Enterobacter cloacae. As for the experimental part:
as §1, §2, §3, §4

For a further test, the system named is P. aeruginosa 40. The protocol: as §1, §2, §3, §4
A further test deals with P. aeruginosa 43. The conditions noted are these: Pseudomonas aeruginosa; P. aeruginosa 43; read-out: MIC90. The protocol: as §1, §2, §3, §4
The subject of another test is A. baumannii 46. The protocol:
as §1, §2, §3, §4

The mark [2] stands for this setting: AG100, E. coli AG100, read-out: MIC90.
[3] abbreviates: A. calcoaceticus ATCC15473, read-out: MIC90.
The mark [4] stands for this setting: Acinetobacter baumannii, A. baumannii 49, read-out: MIC90.
Where [5] appears, read: A. baumannii 52, read-out: MIC90.
The mark [6] stands for this setting: K. pneumoniae 2011E, read-out: MIC90.
The mark [7] stands for this setting: Pseudomonas aeruginosa, 40, P. aeruginosa 40, read-out: MIC90.
Setting [8] is: Acinetobacter baumannii, A. baumannii 46, read-out: MIC90.

The MIC90 is an inhibitory concentration at the 90% level, which refers to growth in some studies and to a panel of isolates in others. Take `CN(CCNc1c[n+](CC2=C(C(=O)[O-])N3C(=O)[C@@H](NC(=O)/C(=N\OC(C)(C)C(=O)O)c4csc(N)n4)C3SC2)cnc1N)Cc1ccc(O)c(O)c1` (stereo partly shown) [Compound 29]: the MIC90 in the test on K. pneumoniae β14 (read-out: MIC90) is 16 µg/mL (≈ 21.1 µM); in the test on E. coli AG100 (setting [2]), 2 µg/mL (≈ 2.64 µM); in test [1] (setting [3]), 4 µg/mL (≈ 5.29 µM); in the test on P. aeruginosa 1912E (read-out: MIC90) it was 2 µg/mL (≈ 2.64 µM); with A. baumannii 49 (setting [4]), 32 µg/mL (≈ 42.3 µM); with E. coli β4 (read-out: MIC90), 2 µg/mL (≈ 2.64 µM). Besides, the MIC90 was found to be 32 µg/mL (≈ 42.3 µM) in the test on A. baumannii 52 (setting [5]); 2 µg/mL (≈ 2.64 µM) with P. aeruginosa 37 (read-out: MIC90); 8 µg/mL (≈ 10.6 µM) in the test with P. aeruginosa 6065Y (read-out: MIC90); 8 µg/mL (≈ 10.6 µM) in the test with K. pneumoniae 2011E (setting [6]); 8 µg/mL (≈ 10.6 µM) with E. cloacae β19 (read-out: MIC90); 4 µg/mL (≈ 5.29 µM) with P. aeruginosa 40 (setting [7]). The MIC90 in the test with P. aeruginosa 43 amounted to 4 µg/mL (≈ 5.29 µM); in the test with A. baumannii 46 (setting [8]), 8 µg/mL (≈ 10.6 µM).

In the case of `CC(C)(O/N=C(\C(=O)N[C@@H]1C(=O)N2C(C(=O)[O-])=C(C[n+]3cnc(N)c(NCCNC(=O)c4ccc(O)c(O)c4)c3)CSC12)c1csc(N)n1)C(=O)O` (stereo partly shown) [Compound 30], the MIC90 is 16 µg/mL (≈ 21.1 µM) in the test with K. pneumoniae β14 (read-out: MIC90); 0.125 µg/mL (≈ 0.165 µM) with E. coli AG100 (setting [2]); 1 µg/mL (≈ 1.32 µM) in [1] (setting [3]); 1 µg/mL (≈ 1.32 µM) in the test with P. aeruginosa 1912E (read-out: MIC90); > 128 µg/mL in the test on A. baumannii 49 (setting [4]); 2 µg/mL (≈ 2.64 µM) in the test with E. coli β4 (read-out: MIC90). The MIC90 in the test on A. baumannii 52 (setting [5]) was found to be 128 µg/mL (≈ 169 µM); in the test on P. aeruginosa 37 (read-out: MIC90) it was 2 µg/mL (≈ 2.64 µM); in the test with P. aeruginosa 6065Y (read-out: MIC90), 0.5 µg/mL (≈ 0.661 µM); in the test on K. pneumoniae 2011E (setting [6]) it was 0.5 µg/mL (≈ 0.661 µM); with E. cloacae β19 (read-out: MIC90) it was 4 µg/mL (≈ 5.29 µM); in the test with P. aeruginosa 40 (setting [7]), 0.5 µg/mL (≈ 0.661 µM). In addition, the MIC90 is 0.5 µg/mL (≈ 0.661 µM) in the test on P. aeruginosa 43 and 1 µg/mL (≈ 1.32 µM) in the test with A. baumannii 46 (setting [8]).

Turning to `CC(C)(O/N=C(\C(=O)N[C@@H]1C(=O)N2C(C(=O)[O-])=C(C[n+]3cnc(N)c(N)c3)CSC12)c1csc(N)n1)C(=O)O` (stereo partly shown) [Compound 36], the MIC90 in the test with K. pneumoniae β14 (read-out: MIC90) is 16 µg/mL (≈ 27.7 µM); with E. coli AG100 (setting [2]), 0.5 µg/mL (≈ 0.866 µM); in test [1] (setting [3]) it was 2 µg/mL (≈ 3.46 µM); with P. aeruginosa 1912E (read-out: MIC90), 8 µg/mL (≈ 13.9 µM); in the test with A. baumannii 49 (setting [4]), > 128 µg/mL; with E. coli β4 (read-out: MIC90), 16 µg/mL (≈ 27.7 µM). The MIC90 was > 128 µg/mL in the test on A. baumannii 52 (setting [5]); > 128 µg/mL in the test with P. aeruginosa 37 (read-out: MIC90); 64 µg/mL (≈ 111 µM) in the test with P. aeruginosa 6065Y (read-out: MIC90); 0.5 µg/mL (≈ 0.866 µM) in the test with K. pneumoniae 2011E (setting [6]); > 128 µg/mL in the test on E. cloacae β19 (read-out: MIC90); 16 µg/mL (≈ 27.7 µM) with P. aeruginosa 40 (setting [7]). For the same compound, in the test on A. baumannii 46 (setting [8]), the MIC90 was found to be 64 µg/mL (≈ 111 µM).

`CC(C)(O/N=C(\C(=O)N[C@@H]1C(=O)N2C(C(=O)[O-])=C(C[n+]3cnc(N)c(NCCN)c3)CSC12)c1csc(N)n1)C(=O)O` (stereo partly shown) [Compound 37]: the MIC90 is 16 µg/mL (≈ 25.8 µM) against K. pneumoniae β14; 4 µg/mL (≈ 6.44 µM) with E. coli AG100 (AG100); 1 µg/mL (≈ 1.61 µM) in test [1] (ATCC15473, A. calcoaceticus ATCC15473); 4 µg/mL (≈ 6.44 µM) with P. aeruginosa 1912E; 128 µg/mL (≈ 206 µM) against A. baumannii 49 (Acinetobacter baumannii, 49, A. baumannii 49); 4 µg/mL (≈ 6.44 µM) against E. coli β4. Besides, the MIC90 in the test with A. baumannii 52 (52) was determined as 64 µg/mL (≈ 103 µM); against P. aeruginosa 37, 16 µg/mL (≈ 25.8 µM); against P. aeruginosa 6065Y (6065Y), 8 µg/mL (≈ 12.9 µM); in the test on K. pneumoniae 2011E, 8 µg/mL (≈ 12.9 µM); in the test on E. cloacae β19, 16 µg/mL (≈ 25.8 µM); in the test on P. aeruginosa 40 (Pseudomonas aeruginosa, 40), 4 µg/mL (≈ 6.44 µM). Further, in the test on A. baumannii 46 (Acinetobacter baumannii, 46, A. baumannii 46), the MIC90 was 4 µg/mL (≈ 6.44 µM).

In the case of `CC(C)(O/N=C(\C(=O)N[C@@H]1C(=O)N2C(C(=O)[O-])=C(C[n+]3cnc(N)c(NCCCC(=O)O)c3)CSC12)c1csc(N)n1)C(=O)O` (stereo partly shown) [Compound 38], the MIC90 in the test with K. pneumoniae β14 (read-out: MIC90) was 64 µg/mL (≈ 96.4 µM); in the test with E. coli AG100 (setting [2]), 8 µg/mL (≈ 12.1 µM); in test [1] (setting [3]) it was 16 µg/mL (≈ 24.1 µM); in the test with P. aeruginosa 1912E (read-out: MIC90) it was 32 µg/mL (≈ 48.2 µM); with A. baumannii 49 (setting [4]) it was > 128 µg/mL; with E. coli β4 (read-out: MIC90), 16 µg/mL (≈ 24.1 µM). Also, the MIC90 was > 128 µg/mL in the test on A. baumannii 52 (setting [5]); > 128 µg/mL in the test with P. aeruginosa 37 (read-out: MIC90); 128 µg/mL (≈ 193 µM) with P. aeruginosa 6065Y (read-out: MIC90); 4 µg/mL (≈ 6.03 µM) in the test with K. pneumoniae 2011E (setting [6]); > 128 µg/mL in the test on E. cloacae β19 (read-out: MIC90); 64 µg/mL (≈ 96.4 µM) in the test with P. aeruginosa 40 (setting [7]). Further, in the test on A. baumannii 46 (setting [8]), the MIC90 came to 128 µg/mL (≈ 193 µM).
